Results published in patent publication US6204262A, “1,3-Benzodiazepin-2-ones and 1,3-Benzoxazepin-2-ones useful as HIV reverse transcriptase inhibitors” (DuPont Pharmaceuticals Company, priority 1999, dated 2001).
Converted amounts (≈) assume the structure as drawn.

Test system: HIV-1 (RF)
Experiment: Microplate based compound evaluation in HIV-1 infected MT-2 cells (HIV RNA assay)
Type: cell-based
Conditions: Human immunodeficiency virus 1, MT2, 72 h; HIV-1 (RF) infected MT-2 cells, 3 days at 37° C.; virus inoculum standardized on ddC; read-out: IC90 value (concentration of compound required to reduce the HIV RNA level by 90%)
Protocol: Plasmid pDAB 72 containing both gag and pol sequences of BH10 (bp 113-1816) cloned into PTZ 19R was prepared according to Erickson-Viitanen et al. AIDS Research and Human Retroviruses 1989, 5, 577. The plasmid was linearized with Bam HI prior to the generation of in vitro RNA transcripts using the Riboprobe Gemini system II kit (Promega) with T7 RNA polymerase. Synthesized RNA was purified by treatment with RNase free DNAse (Promega), phenol-chloroform extraction, and ethanol precipitation. RNA transcripts were dissolved in water, and stored at -70° C. The concentration of RNA was determined from the A260.
Biotinylated capture probes were purified by HPLC after synthesis on an Applied Biosystems (Foster City, Calif.) DNA synthesizer by addition of biotin to the 5' terminal end of the oligonucleotide, using the biotin-phosphoramidite reagent of Cocuzza, Tet. Lett. 1989, 30, 6287. […]
MT-2 and MT-4 cells were maintained in RPMI 1640 supplemented with 5% fetal calf serum (FCS) for MT-2 cells or 10% FCS for MT-4 cells, 2 mM L-glutamine and 50 μg/mL gentamycin, all from Gibco. […] Infectious titers of HIV-1(RF) stocks were 1-3×10^7 PFU (plaque forming units)/mL as measured by plaque assay on MT-2 cells (see below). […]

Compound: Nc1ccn([C@H]2CC[C@@H](CO)O2)c(=O)n1 [ddC, 2',3'-dideoxycytidine]
- IC90: 0.2 µg/mL (≈ 0.947 µM)
